Reference: patent US10258598B2, “Compounds for use in the prevention or treatment of cancer” ([…], priority 2014, dated 2019)

Experiments:
[1] = system: enhancer-sensitive neurons of isolated rat brain stem; conditions: optimal concentration for specific enhancer effect, 3-min collection period; review Knoll, 2005; cited from earlier work
[2] = system: tetrabenazine-induced learning deficit; assay: Shuttle box: conditioned avoidance reflex, antagonism of tetrabenazine-induced learning deficit; type: in vivo, rat; conditions: for very high dose range effective in antagonizing the tetrabenazine-induced learning deficit: attributed to inhibition of MAO-A; for optimal dose that exerted the specific enhancer effect: rats given 1 mg/kg tetrabenazine s.c. one hour prior to training
Method: In a modified version of the shuttle box the acquisition of a two-way conditioned avoidance reflex (CAR) was analyzed during 5 consecutive days. The rat was put in a box divided inside into two parts by a barrier with a small gate in the middle, and the animal was trained to cross the barrier under the influence of a conditioned stimulus (CS, light flash). […] One trial consisted of 10 s intertrial interval, followed by 20 s CS. The last 5 s of CS overlaped the 5 s US. At each learning session, the number of CARs, EFs and intersignal reactions (IRs) are automatically counted and evaluated by multi-way ANOVA.
Tetrabenazine-treatment (1 mg/kg s.c.) depletes at least 90% of norepinephrine and dopamine from their stores in the nerve terminals of the catecholaminergic neurons in the brain stem. Due to the weak performance of the catecholaminergic brain engine, the activation of the cortical neurons remains below the level required for the acquisition of a CAR. The learning deficit caused by tetrabenazine-treatment can be antagonized by the administration of a synthetic CAE substance or an A-type MAO inhibitor, whereas selective inhibition of B-type MAO or inhibition of the reuptake of catecholamines and/or serotonin is ineffective (Knoll et al., 1992).

fibromyxosarcoma = assay: Longevity study: manifestation of subcutaneous fibromyxosarcoma (TMS effect); type: in vivo, Wistar rats; conditions: for month in which the last animal manifested the tumor / rats that manifested the tumor to the end of the 32nd month of age / age at which the first animal manifested the tumor / rats that manifested the tumor when the group completed the 30th month of life: N=40; for rats that manifested the tumor to the end of the 32nd month of age / rats that manifested the tumor when the group completed the 30th month of life: saline 20 rats; for age at which the first animal manifested the tumor: saline: 11th month; for span of time from tumor manifestation until death, versus saline: chronic treatment, One-way ANOVA (FIG. 13)
Method: (§1) The longevity study was performed on 200 male rats received from the breeding colony of the Semmelweis University. The rats were born at the end of February of 2010. After 2-month acclimation period the rats were divided randomly into 5 even groups. The longevity study started at the beginning of May 2010. Animals were observed until their natural deaths. The data in this study represent the changes observed until Oct. 31, 2012, since in the saline-treated group the last animal died on Oct. 31, 2012. As will be shown later a few rats in the enhancer-treated groups were still alive on Nov. 1, 2012.
(§2) During the longevity study 5 rats were housed together in polycarbonate cages (height: 18 cm; wide: 42 cm; length: 44 cm) with a stainless steel on the top. Cage bedding was renewed 3 times a week (Monday, Wednesday and Friday). Bodyweight was measured once every month. The treatment started at the end of the second month of their age. […] To avoid the mixing of the groups and individuals, saline-treated rats were signed blue from 1 to 40; D-treated rats were signed green from 1 to 80 (1-40: rats treated with 0.1 mg/kg and 41-80: rats treated with 0.001 mg/kg); B-treated rats were signed black from 1 to 80 (1-40: rats treated with 0.05 mg/kg and 41-80: rats treated with 0.0001 mg/kg).
We carefully observed the appearance of the subcutaneous tumor and followed the development of the tumor until death. Histological analysis was performed post mortem on several rats taken from each group as examples.
The subcutaneous tumors developed in the rats were measured by the two largest diameters. After sacrificing the animals, the tumors were removed, photographs were taken. Tissues were fixed immediately after removal in 10% neutral formalin (in PBS, pH7.0) for 24 hours at room temperature, dehydrated and embedded in paraffin. 3-4 micrometer thick sections were cut and stained by hematoxylin and eosin (HE) as a routine.
(§3) Significance in the performance between the groups in the shuttle box was evaluated by multi-factor analysis of variance (ANOVA). Significance regarding the span of time from tumor manifestation until death in rats and regarding aging related changes in bodyweight treated chronically with the enhancer substances was analyzed by One-way ANOVA. Statistical analysis of survival rate and tumor manifestation was performed by the Kaplan-Meier method.

[3] = system: male Wistar rats (Charles River); assay: Longevity study: survival of rats under lifelong treatment; type: in vivo, rat; conditions: for month of age in which the first animal died: saline: 9th month; for lifespan versus saline-treated peers: both doses of each substance (FIGS. 5-8), Kaplan-Meier
Method: Experiments were carried out on male Wistar rats (Charles River) weighing 250-350 g received from the breeding colony of Semmelweis University. The animals were kept in a 12-hour light-dark cycle and under condition of controlled temperature (22±2° C.) and relative humidity (55±5%). Room temperature and relative humidity was checked daily. The rats were maintained on standard laboratory chow and tap water ad libitum. All procedures conformed to the European Convention for the protection of vertebrate animals used for experimental and other scientific purposes. The study was approved by the Animal Ethics Committee of Semmelweis University, Budapest (permission number: 1810/003/2004)
as §1, §2, §3

## C#CCN(C)[C@H](C)Cc1ccccc1 [(−)-Deprenyl, (R)—N-methyl-N-(1-phenylpropan-2-yl)prop-2-yn-1-amine]
[1]
  released amount of labeled transmitter ([3H]-norepinephrine, [3H]-dopamine or [3H]-serotonin) versus absence of substance: significantly higher
[2]; FIG. 3
  form of the dose-effect relation of the enhancer effect: bi-modal, bell-shaped dose-effect-relation
[2]
  very high dose range effective in antagonizing the tetrabenazine-induced learning deficit: 5000 to 10000 µg/kg
  optimal dose that exerted the specific enhancer effect: 1 µg/kg
fibromyxosarcoma; 0.001 mg/kg, Kaplan-Meier (FIG. 10)
  tumor manifestation suppressing (TMS) effect versus saline: not significant
fibromyxosarcoma; 0.001 mg/kg
  month in which the last animal manifested the tumor: 29 month
  rats that manifested the tumor to the end of the 32nd month of age: 15 rats
  age at which the first animal manifested the tumor: 12 month
fibromyxosarcoma; 0.1 mg/kg s.c. 3 times a week
  age at which the first animal manifested the tumor: 16 month
fibromyxosarcoma; 0.1 mg/kg, Kaplan-Meier, P<0.01 (FIG. 9), listed as (−)-deprenyl
  tumor manifestation suppressing (TMS) effect versus saline: significantly decreased
fibromyxosarcoma; 0.1 mg/kg, Kaplan-Meier, P<0.01 (FIG. 9), listed as Deprenyl
  tumor manifestation suppressing (TMS) effect versus saline: suppressed the manifestation of the fibromyxosarcoma significantly
fibromyxosarcoma; 0.1 mg/kg
  month in which the last animal manifested the tumor: 32 month
  rats that manifested the tumor to the end of the 32nd month of age: 11 rats
fibromyxosarcoma; 0.1 mg/kg, P<0.01
  rats that manifested the tumor when the group completed the 30th month of life: 11 rats
fibromyxosarcoma
  span of time from tumor manifestation until death, versus saline: no significant difference
[3]; 0.001 mg/kg s.c. 3 times a week, N=40
  month of age in which the first animal died: 13 month
[3]; 0.001 mg/kg, N=40
  month of age in which the last animal died: 32 month
[3]; 0.001 mg/kg, N=40, P>0.05 vs saline
  rats remaining alive to the end of the 32nd month of age: none
[3]; 0.1 mg/kg s.c. 3 times a week from 2 months of age, N=40
  month of age in which the first animal died: 11 month
[3]
  lifespan versus saline-treated peers: did not prolong the lifespan of rats significantly

## CCCN[C@H](CCC)Cc1cc2ccccc2o1 [(−)-BPAP, (R)-1-(benzofuran-2-yl)-2-propylamino pentane]
[1]
  released amount of labeled transmitter ([3H]-norepinephrine, [3H]-dopamine or [3H]-serotonin) versus absence of substance: significantly higher
[2]
  very high dose range effective in antagonizing the tetrabenazine-induced learning deficit: 2000 to 10000 µg/kg
  optimal dose that exerted the specific enhancer effect: 0.1 µg/kg
[2]; rats given 1 mg/kg tetrabenazine s.c., for Deprenyl the less effective dose was chosen
  dose with the non-specific enhancer effect selected for the longevity study: 50 µg/kg
fibromyxosarcoma; 0.0001 mg/kg, Kaplan-Meier, P<0.001 (FIG. 12)
  tumor manifestation suppressing (TMS) effect versus saline: significantly decreased
fibromyxosarcoma; 0.0001 mg/kg, Kaplan-Meier, P<0.001 (FIG. 12), listed as BPAP
  tumor manifestation suppressing (TMS) effect versus saline: suppressed the manifestation of the fibromyxosarcoma significantly
fibromyxosarcoma; 0.0001 mg/kg
  month in which the last animal manifested the tumor: 31 month
  rats that manifested the tumor to the end of the 32nd month of age: 8 rats
  age at which the first animal manifested the tumor: 20 month
fibromyxosarcoma; 0.0001 mg/kg, P<0.001
  rats that manifested the tumor when the group completed the 30th month of life: 8 rats
fibromyxosarcoma; 0.0001 mg/kg, listed as BPAP
  age at which the first animal manifested the tumor: 25 month
fibromyxosarcoma; 0.05 mg/kg, Kaplan-Meier, P<0.001 (FIG. 11)
  tumor manifestation suppressing (TMS) effect versus saline: significantly decreased
fibromyxosarcoma; 0.05 mg/kg, Kaplan-Meier, P<0.001 (FIG. 11), listed as BPAP
  tumor manifestation suppressing (TMS) effect versus saline: suppressed the manifestation of the fibromyxosarcoma significantly
fibromyxosarcoma; 0.05 mg/kg
  month in which the last animal manifested the tumor: 29 month
  rats that manifested the tumor to the end of the 32nd month of age: 7 rats
  age at which the first animal manifested the tumor: 13 month
fibromyxosarcoma; 0.05 mg/kg, P<0.001
  rats that manifested the tumor when the group completed the 30th month of life: 7 rats
fibromyxosarcoma
  span of time from tumor manifestation until death, versus saline: no significant difference
[3]; 0.0001 mg/kg s.c. 3 times a week, N=40
  month of age in which the first animal died: 16 month
[3]; 0.0001 mg/kg, N=40, P<0.05 vs saline
  rats remaining alive to the end of the 32nd month of age: one and One
[3]; 0.05 mg/kg s.c. 3 times a week, N=40
  month of age in which the first animal died: 14 month
[3]
  lifespan versus saline-treated peers: significantly longer
